Assays:
Format in all cases: functional
[1] = tested on: MDA-MB-435; experiment: Cytotoxicity against Homo sapiens (human) MDA-MB-435 cells after 48 hr by sulforhodamine B assay; details: MDA-MB-435, 48 h
[2] = tested on: NCI-H522; experiment: Cytotoxicity against Homo sapiens (human) NCI-H522 cells after 48 hr by sulforhodamine B assay; details: NCI-H522, 48 h; for CC50: read-out: LC50 (the source's name)
[3] = tested on: HOP-92; experiment: Cytotoxicity against Homo sapiens (human) HOP92 cells after 48 hr by sulforhodamine B assay; details: HOP-92, 48 h; for CC50: read-out: LC50 (the source's name)
[4] = tested on: UACC-257; experiment: Cytotoxicity against Homo sapiens (human) UACC257 cells after 48 hr by sulforhodamine B assay; details: UACC-257, 48 h
[5] = tested on: U-251; experiment: Cytotoxicity against Homo sapiens (human) U251 cells after 48 hr by sulforhodamine B assay; details: U-251, 48 h
[6] = Cytotoxicity against Homo sapiens (human) NCI-ADR-RES cells after 48 hr by sulforhodamine B assay
[7] = tested on: SNB-75; experiment: Cytotoxicity against Homo sapiens (human) SNB75 cells after 48 hr by sulforhodamine B assay; details: SNB-75, 48 h; for CC50: read-out: LC50 (the source's name)
[8] = tested on: Hs-578T; experiment: Cytotoxicity against Homo sapiens (human) Hs 578T cells after 48 hr by sulforhodamine B assay
[9] = tested on: OVCAR-5; experiment: Cytotoxicity against Homo sapiens (human) OVCAR5 cells after 48 hr by sulforhodamine B assay; details: OVCAR-5, 48 h; for CC50: read-out: LC50 (the source's name)
[10] = tested on: TK-10; experiment: Cytotoxicity against Homo sapiens (human) TK10 cells after 48 hr by sulforhodamine B assay; details: TK-10, 48 h; for CC50: read-out: LC50 (the source's name)
[11] = tested on: NCI-H460; experiment: Cytotoxicity against Homo sapiens (human) NCI-H460 cells after 48 hr by sulforhodamine B assay; details: NCI-H460, 48 h; for CC50: read-out: LC50 (the source's name)
[12] = tested on: SF-268; experiment: Cytotoxicity against Homo sapiens (human) SF268 cells after 48 hr by sulforhodamine B assay; details: SF-268, 48 h; for CC50: read-out: LC50 (the source's name)
[13] = tested on: SN12C; experiment: Cytotoxicity against Homo sapiens (human) SN12C cells after 48 hr by sulforhodamine B assay
[14] = tested on: BT-549; experiment: Cytotoxicity against Homo sapiens (human) BT549 cells after 48 hr by sulforhodamine B assay; details: BT-549, 48 h
[15] = tested on: MCF7; experiment: Cytotoxicity against Homo sapiens (human) MCF7 cells after 48 hr by sulforhodamine B assay; details: MCF7, 48 h
[16] = tested on: CAKI-1; experiment: Cytotoxicity against Homo sapiens (human) Caki1 cells after 48 hr by sulforhodamine B assay; details: CAKI-1, 48 h; for CC50: read-out: LC50 (the source's name)
[17] = tested on: SNB-19; experiment: Cytotoxicity against Homo sapiens (human) SNB19 cells after 48 hr by sulforhodamine B assay; details: SNB-19, 48 h
[18] = tested on: K562; experiment: Cytotoxicity against Homo sapiens (human) K562 cells after 48 hr by sulforhodamine B assay; details: K562, 48 h; for CC50: read-out: LC50 (the source's name)
[19] = tested on: HT-29; experiment: Cytotoxicity against Homo sapiens (human) HT-29 cells after 48 hr by sulforhodamine B assay; details: HT-29, 48 h; for CC50: read-out: LC50 (the source's name)
[20] = tested on: MCF7; experiment: Cytotoxicity against Homo sapiens (human) MCF7 cells assessed as cell growth at 10^-4 M after 48 hr by Alamar blue assay; details: MCF7, 48 h, read-out: Activity
[21] = tested on: COLO 205; experiment: Cytotoxicity against Homo sapiens (human) COLO205 cells after 48 hr by sulforhodamine B assay; details: COLO 205, 48 h; for CC50: read-out: LC50 (the source's name)
[22] = tested on: NCI-H23; experiment: Cytotoxicity against Homo sapiens (human) NCI-H23 cells after 48 hr by sulforhodamine B assay; details: NCI-H23, 48 h; for CC50: read-out: LC50 (the source's name)
[23] = tested on: NCI-H226; experiment: Cytotoxicity against Homo sapiens (human) NCI-H226 cells after 48 hr by sulforhodamine B assay; details: NCI-H226, 48 h; for CC50: read-out: LC50 (the source's name)
[24] = tested on: M14; experiment: Cytotoxicity against Homo sapiens (human) M14 cells after 48 hr by sulforhodamine B assay; details: M14, 48 h
[25] = tested on: NCI-H460; experiment: Cytotoxicity against Homo sapiens (human) NCI-H460 cells assessed as cell growth at 10^-4 M after 48 hr by Alamar blue assay; details: NCI-H460, 48 h, read-out: Activity
[26] = tested on: OVCAR-8; experiment: Cytotoxicity against Homo sapiens (human) OVCAR8 cells after 48 hr by sulforhodamine B assay; details: OVCAR-8, 48 h
[27] = tested on: SK-MEL-28; experiment: Cytotoxicity against Homo sapiens (human) SK-MEL-28 cells after 48 hr by sulforhodamine B assay; details: SK-MEL-28, 48 h

In the case of `ClCc1cccc(Cn2cnc3c(Cl)nc(Cl)nc32)c1`, the GI50 [1] is reported as 1.69 µM, the LC50 [1] is reported as 6.31 µM and the TGI [1] is reported as 3.23 µM. It also gave a GI50 [2] of 2.69 µM, a TGI [2] of 5.37 µM and a CC50 [2] of 17 µM. For the same compound, the GI50 [3] was 1.82 µM, the TGI [3] was 3.63 µM and the CC50 [3] was 7.08 µM. The GI50 [4] was 1.86 µM, the LC50 (concentration killing 50% of cells) [4] was 6.45 µM and the TGI [4] was 3.46 µM. The GI50 [5] was 1.69 µM, the LC50 (concentration killing 50% of cells) [5] was 5.62 µM and the TGI [5] was 3.09 µM. It also gave a GI50 [6] of 2.39 µM, an LC50 (concentration killing 50% of cells) [6] of over 100 µM and a TGI [6] of 5.24 µM. The GI50 [7] was 2.04 µM, the TGI [7] was 3.89 µM and the CC50 [7] was 7.41 µM. For the same compound, the GI50 [8] was 1.99 µM, the TGI [8] was 4.36 µM and the GI50 [9] was 6.45 µM. For the same compound, the TGI [9] was 20.4 µM, the CC50 [9] was 47.9 µM and the GI50 [10] was 1.73 µM. For the same compound, the TGI [10] was 3.98 µM, the CC50 [10] was 8.91 µM and the GI50 [11] was 2.34 µM. The TGI [11] was 6.31 µM, the CC50 [11] was over 100 µM and the GI50 [12] was 2.51 µM. It also gave a TGI [12] of 6.6 µM, a CC50 [12] of 70.8 µM and a GI50 [13] of 2.13 µM. It also gave an LC50 (50% lethal concentration) [13] of 11.8 µM, a TGI [13] of 4.67 µM and a GI50 [14] of 1.69 µM. It also gave an LC50 (50% lethal concentration) [14] of 6.16 µM, a TGI [14] of 3.23 µM and a GI50 [15] of 2.04 µM. For the same compound, the LC50 (concentration killing 50% of cells) [15] was over 100 µM, the TGI [15] was 6.45 µM and the GI50 [16] was 2.23 µM. For the same compound, the TGI [16] was 5.88 µM, the CC50 [16] was 22.9 µM and the GI50 [17] was 1.95 µM. The LC50 [17] was 8.92 µM, the TGI [17] was 4.16 µM and the GI50 [18] was 1.58 µM. For the same compound, the TGI [18] was over 100 µM, the CC50 [18] was over 100 µM and the GI50 [19] was 2.39 µM. For the same compound, the TGI [19] was over 100 µM, the CC50 [19] was over 100 µM and the growth at 100 µM [20] was 0%. It also gave a GI50 [21] of 2.23 µM, a TGI [21] of 5.37 µM and a CC50 [21] of over 100 µM. It also gave a GI50 [22] of 2.13 µM, a TGI [22] of 5.12 µM and a CC50 [22] of 22.4 µM. It also gave a GI50 [23] of 3.23 µM, a TGI [23] of 10 µM and a CC50 [23] of 40.7 µM. The GI50 [24] was 1.77 µM, the LC50 [24] was 6.45 µM and the TGI [24] was 3.38 µM. The growth at 100 µM [25] was 0%, the GI50 [26] was 1.82 µM and the LC50 (concentration killing 50% of cells) [26] was 67.6 µM. For the same compound, the TGI [26] was 3.54 µM, the GI50 [27] was 2.34 µM and the LC50 (concentration killing 50% of cells) [27] was over 100 µM. For the same compound, the TGI [27] was 5.37 µM.

For `ClCc1cccc(Cn2cnc3ncnc(Cl)c32)c1`, the GI50 [1] was 3.46 µM, the LC50 [1] was 39.8 µM and the TGI [1] was 12.9 µM. It also gave a GI50 [2] of 6.16 µM, a TGI [2] of 24 µM and a CC50 [2] of over 100 µM. It also gave a CC50 [3] of 52.5 µM, a GI50 [4] of 1.94 µM and an LC50 (concentration killing 50% of cells) [4] of 18.6 µM. The TGI [4] was 5.49 µM, the GI50 [5] was 1.94 µM and the LC50 (concentration killing 50% of cells) [5] was over 100 µM. For the same compound, the TGI [5] was 3.98 µM, the GI50 [6] was 2.75 µM and the LC50 (concentration killing 50% of cells) [6] was 81 µM. It also gave a TGI [6] of 9.77 µM, a GI50 [7] of 1.86 µM and a TGI [7] of 3.54 µM. The CC50 [7] was 7.94 µM, the GI50 [8] was 18.2 µM and the LC50 [8] was 97.7 µM. For the same compound, the TGI [8] was 42.6 µM, the GI50 [9] was 6.76 µM and the TGI [9] was 19.9 µM. The CC50 [9] was over 100 µM, the GI50 [10] was 1.77 µM and the TGI [10] was 3.31 µM. It also gave a CC50 [10] of 6.3 µM, a GI50 [11] of 2.08 µM and a TGI [11] of 4.46 µM. It also gave a CC50 [11] of 91.2 µM, a GI50 [12] of 1.65 µM and a TGI [12] of 3.46 µM. It also gave a CC50 [12] of 47.9 µM, a GI50 [13] of 7.07 µM and an LC50 (50% lethal concentration) [13] of 6.16 µM. For the same compound, the TGI [13] was 20.4 µM, the GI50 [14] was 13.2 µM and the LC50 (50% lethal concentration) [14] was 63.1 µM. It also gave a TGI [14] of 28.8 µM, a GI50 [15] of 1.58 µM and an LC50 (concentration killing 50% of cells) [15] of 39 µM. The TGI [15] was 3.98 µM, the GI50 [16] was 2.13 µM and the TGI [16] was 4.07 µM. The CC50 [16] was over 100 µM, the LC50 [17] was 6.76 µM and the GI50 [18] was 16.6 µM. It also gave a TGI [18] of 47.9 µM, a CC50 [18] of over 100 µM and a GI50 [19] of 2.88 µM. The TGI [19] was over 100 µM, the CC50 [19] was 6.02 µM and the growth at 100 µM [20] was 1%. It also gave a GI50 [21] of 2.63 µM, a TGI [21] of over 100 µM and a CC50 [21] of 6.3 µM. It also gave a GI50 [22] of 1.23 µM, a TGI [22] of 3.38 µM and a CC50 [22] of 5.88 µM. The GI50 [23] was 3.16 µM, the TGI [23] was 8.7 µM and the CC50 [23] was 9.33 µM. For the same compound, the GI50 [24] was 3.09 µM, the LC50 [24] was 67.6 µM and the TGI [24] was 14.5 µM. The growth at 100 µM [25] was 0%, the GI50 [26] was 3.09 µM and the LC50 (concentration killing 50% of cells) [26] was 60.2 µM. The TGI [26] was 14.8 µM, the GI50 [27] was 1.81 µM and the LC50 (concentration killing 50% of cells) [27] was 42.6 µM. The TGI [27] was 3.54 µM.

— ChEMBL document CHEMBL3044672, “N9- and N7-(Chloromethyl Phenymethyl)Chloropurine Derivatives from , '-Dichloroxylenes: Synthesis and Anticancer Activity” (2005)
